Here are results for 31 compounds from ChEMBL document CHEMBL5104096, “Undecaprenol kinase: Function, mechanism and substrate specificity of a potential antibiotic target” (Eur J Med Chem, 2021).

One assay relates to Streptococcus mutans. Briefly: Substrate activity at wild-type Streptococcus mutans UdpK expressed in Escherichia coli C43(DE3) in presence of ATP/NADH by PK/LDH coupled assay.
Conditions: not given
With `C/C(=C/CO)CC/C=C(/C)CC/C=C(/C)CC/C=C(/C)CC/C=C(/C)CC/C=C(/C)CC/C=C(/C)CC/C=C(\C)CC/C=C(\C)CC/C=C(\C)CCCNc1cc2ccc3cccc4ccc(c1)c2c34`, the Activity came to 6.2 µmol/mg/min. Still for that read-out and setting: as for `C/C(=C/CO)CC/C=C(/C)CC/C=C(/C)CC/C=C(/C)CC/C=C(/C)CC/C=C(/C)CC/C=C(/C)CC/C=C(\C)CC/C=C(\C)CC/C=C(\C)CCCNC1CC(C)(C)N([O])C(C)(C)C1`, the figure is 5.1 µmol/mg/min; as for `C/C(=C/CO)CC/C=C(/C)CC/C=C(/C)CC/C=C(/C)CC/C=C(/C)CC/C=C(/C)CC/C=C(/C)CC/C=C(\C)CC/C=C(\C)CC/C=C(\C)CCCNc1ccccc1C(N)=O`, 6.9 µmol/mg/min.

Consider `C#Cc1cccc(NCCC/C(C)=C/CC/C(C)=C/CC/C(C)=C/CC/C(C)=C\CC/C(C)=C\CC/C(C)=C\CC/C(C)=C\CC/C(C)=C\CC/C(C)=C\CC/C(C)=C\CO)c1`, for which the Activity turned out to be 9 µmol/mg/min. On the same count and under the same terms, as for `C/C(=C/CO)CC/C=C(/C)CC/C=C(/C)CC/C=C(/C)CC/C=C(/C)CC/C=C(/C)CC/C=C(/C)CC/C=C(\C)CC/C=C(\C)CC/C=C(\C)CCCN=[N+]=[N-]`, the figure is 10.8 µmol/mg/min; as for `C/C(=C/CO)CC/C=C(/C)CC/C=C(/C)CC/C=C(/C)CC/C=C(/C)CC/C=C(/C)CC/C=C(/C)CC/C=C(\C)CC/C=C(\C)CC/C=C(\C)CCC1OC1(C)C` (stereo unspecified), 8.1 µmol/mg/min; as for `C/C(=C/CC/C(C)=C\CC/C(C)=C\CC/C(C)=C\COC1CCCCO1)CC/C=C(/C)CC/C=C(/C)CC/C=C(/C)CC/C=C(\C)CC/C=C(\C)CC/C=C(\C)CCCO` (stereo unspecified), 3.4 µmol/mg/min. Same read-out and setting: as for `C#CCNCCC/C(C)=C/CC/C(C)=C/CC/C(C)=C/CC/C(C)=C\CC/C(C)=C\CC/C(C)=C\CC/C(C)=C\CC/C(C)=C\CC/C(C)=C\CC/C(C)=C\CO`, the figure is 7.1 µmol/mg/min. As to `C/C(=C/CO)CC/C=C(/C)CC/C=C(/C)CC/C=C(/C)CC/C=C(/C)CC/C=C(/C)CC/C=C(/C)CC/C=C(\C)CC/C=C(\C)CC/C=C(\C)CCCNCc1ccc(C2(C(F)(F)F)N=N2)cc1`, the Activity amounted to 5.1 µmol/mg/min. Still for that read-out and setting: as for `C/C(=C/CO)CC/C=C(/C)CC/C=C(/C)CC/C=C(/C)CC/C=C(/C)CC/C=C(/C)CC/C=C(/C)CC/C=C(\C)CC/C=C(\C)CC/C=C(\C)CCCNc1ccc([N+](=O)[O-])cc1`, the figure is 9 µmol/mg/min; as for `C/C(=C/CO)CC/C=C(/C)CC/C=C(/C)CC/C=C(/C)CC/C=C(/C)CC/C=C(/C)CC/C=C(/C)CC/C=C(\C)CC/C=C(\C)CC/C=C(\C)CCCNc1ccc(N=[N+]=[N-])cc1`, 9.4 µmol/mg/min; as for `CC(=O)SCCC/C(C)=C/CC/C(C)=C/CC/C(C)=C/CC/C(C)=C\CC/C(C)=C\CC/C(C)=C\CC/C(C)=C\CC/C(C)=C\CC/C(C)=C\CC/C(C)=C\CO`, 11.8 µmol/mg/min.

The same assay, now with this note: tested as the 2H-labelled form.
Consider `CC(C)=CCC/C(C)=C/CC/C(C)=C/CC/C(C)=C/CC/C(C)=C\CC/C(C)=C\CC/C(C)=C\CC/C(C)=C\CC/C(C)=C\CC/C(C)=C\CC/C(C)=C\CO`, for which the Activity is 9.4 µmol/mg/min.

The next assay has as its system Streptococcus mutans. Nature of the assay: Substrate activity at 6xHis-tagged Streptococcus mutans UdpK expressed in Escherichia coli BL-21(DE3) assessed as measuring ADP level in presence of ATP/NADH by PK/LDH coupled assay.
Conditions: not given
On to `C/C(=C\CO)CCCC(C)CCCC(C)CCCC(C)C` (stereo unspecified), for which the Activity came to 5.6 µmol/mg/min.

`CC(C)=CCC/C(C)=C/CC/C(C)=C/CC/C(C)=C/CC/C(C)=C\CC/C(C)=C\CC/C(C)=C\CC/C(C)=C\CC/C(C)=C\CC/C(C)=C\CO`: the Activity came out at 3.8 µmol/mg/min. On to `CC(C)=CCC/C(C)=C/CC/C(C)=C/CC/C(C)=C/CO`, for which the Activity is 9.3 µmol/mg/min.

Regarding `CCCCCCCCCCCCCCCCCCCCO`, the Activity came out at 1.3 µmol/mg/min. Same read-out and setting: in the case of `CC(C)=CCC/C(C)=C\CC/C(C)=C\CO` it was 21.2 µmol/mg/min; in that of `CC(C)=CCC/C(C)=C/CC/C(C)=C\CO`, 5.4 µmol/mg/min. The same measure, in the same setting: as for `C/C(=C/CO)CC/C=C(\C)CC/C=C(\C)CC/C=C(\C)CC/C=C(\C)CNS(=O)(=O)c1ccc(N=Nc2ccc(N(C)C)cc2)cc1`, the figure is 5.9 µmol/mg/min; as for `C/C(=C\CO)CC/C=C(\C)CC/C=C(\C)CC/C=C(\C)CC/C=C(\C)CNS(=O)(=O)c1ccc(N=Nc2ccc(N(C)C)cc2)cc1`, 3.3 µmol/mg/min.

Regarding `CCCCCCCCCCCO`, the Activity was 2.1 µmol/mg/min. With `C/C(=C/CO)CC/C=C(/C)CC/C=C(/C)CC/C=C(\C)CC/C=C(\C)CNS(=O)(=O)c1ccc(N=Nc2ccc(N(C)C)cc2)cc1`, the Activity was 4.1 µmol/mg/min. The same measure, in the same setting: in the case of `CC(C)=CCC/C(C)=C/CC/C(C)=C/CC/C(C)=C/CC/C(C)=C/CC/C(C)=C/CC/C(C)=C/CC/C(C)=C/CC/C(C)=C/CO` it was 4.9 µmol/mg/min. As to `CC(C)=CCC/C(C)=C/CC/C(C)=C/CC/C(C)=C\CC/C(C)=C\CC/C(C)=C\CC/C(C)=C\CC/C(C)=C\CC/C(C)=C\CC/C(C)=C\CC/C(C)=C\CC/C(C)=C\CCC(C)CCO` (stereo unspecified), the Activity was 4.5 µmol/mg/min. On the same count and under the same terms, as for `CC(C)=CCC/C(C)=C/CC/C(C)=C/CC/C(C)=C\CC/C(C)=C\CC/C(C)=C\CC/C(C)=C\CO`, the figure is 8.8 µmol/mg/min. Same read-out and setting: as for `CC(C)=CCC/C(C)=C/CC/C(C)=C/CO`, the figure is 11.5 µmol/mg/min; as for `C/C(=C/CO)CC/C=C(/C)CC/C=C(\C)CC/C=C(\C)CC/C=C(\C)CNS(=O)(=O)c1ccc(N=Nc2ccc(N(C)C)cc2)cc1`, 4 µmol/mg/min; as for `CC(C)=CCC/C(C)=C/CC/C(C)=C/CC/C(C)=C\CC/C(C)=C\CC/C(C)=C\CC/C(C)=C\CC/C(C)=C\CO`, 3.8 µmol/mg/min. On to `CC(C)=CCC/C(C)=C/CO`, for which the Activity is 6.2 µmol/mg/min.

As for `CCCCCCCCCCCCCCCCO`, the Activity is 1.9 µmol/mg/min.
